Calls of active or inactive are those of the source. No cut-off for these calls is given here.
Assays:
[1] = biological target: Calcium/calmodulin-dependent protein kinase type II subunit alpha (Homo sapiens) (UniProt Q9UQM7); test: Inhibition of CAMK2A (unknown origin) at 10 uM by Ambit Kinomescan binding assay
[2] = biological target: T1, Mitogen-activated protein kinase kinase kinase kinase 2 (Homo sapiens) (UniProt Q12851); test: Inhibition of MAP4K2 (GCK) Lys2 labeling site in human A-375 cells at 0.05 uM by KiNativ Profiling analysis relative to control; format: cell-based
T1 sequence (whole entry): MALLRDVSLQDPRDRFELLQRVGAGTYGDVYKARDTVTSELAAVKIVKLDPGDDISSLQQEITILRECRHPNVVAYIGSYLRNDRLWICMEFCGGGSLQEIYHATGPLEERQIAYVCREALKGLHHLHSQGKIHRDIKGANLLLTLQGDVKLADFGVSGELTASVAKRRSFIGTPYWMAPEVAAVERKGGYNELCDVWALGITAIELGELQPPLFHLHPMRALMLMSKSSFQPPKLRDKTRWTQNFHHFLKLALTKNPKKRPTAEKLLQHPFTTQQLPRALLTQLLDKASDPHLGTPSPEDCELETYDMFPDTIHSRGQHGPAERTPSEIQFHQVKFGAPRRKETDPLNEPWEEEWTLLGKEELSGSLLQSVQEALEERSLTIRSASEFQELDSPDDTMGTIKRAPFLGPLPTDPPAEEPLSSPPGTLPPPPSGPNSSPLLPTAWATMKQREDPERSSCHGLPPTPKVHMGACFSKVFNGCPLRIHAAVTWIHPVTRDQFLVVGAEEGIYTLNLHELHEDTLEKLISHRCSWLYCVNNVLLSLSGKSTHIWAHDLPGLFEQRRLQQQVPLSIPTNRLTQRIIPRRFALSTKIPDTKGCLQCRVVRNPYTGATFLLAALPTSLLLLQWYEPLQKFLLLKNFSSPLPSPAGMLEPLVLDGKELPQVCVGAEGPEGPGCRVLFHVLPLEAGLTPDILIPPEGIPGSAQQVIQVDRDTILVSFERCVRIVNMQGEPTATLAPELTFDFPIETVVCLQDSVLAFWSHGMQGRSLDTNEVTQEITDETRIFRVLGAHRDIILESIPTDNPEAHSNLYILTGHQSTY

[3] = biological target: T1, Mitogen-activated protein kinase kinase kinase kinase 2 (Homo sapiens); test: Inhibition of MAP4K2 (GCK) Lys2 labeling site in human A-375 cells at 0.5 uM by KiNativ Profiling analysis relative to control; format: cell-based
[4] = biological target: Cyclin-dependent kinase 2 (Homo sapiens) (UniProt P24941); test: Inhibition of CDK2 (unknown origin) at 10 uM by Ambit Kinomescan binding assay relative to control
[5] = biological target: Rho-associated protein kinase 1 (Homo sapiens) (UniProt Q13464); test: Inhibition of ROCK1 Lys2 labeling site in human Huh-7 cell lysate at 1 uM by KiNativ Profiling analysis relative to control; format: subcellular
[6] = biological target: T2, Serine/threonine-protein kinase TAO2 (Homo sapiens) (UniProt Q9UL54); test: Inhibition of TAO2 Lys2 labeling site in human Huh-7 cells at 1 uM by KiNativ Profiling analysis relative to control; format: cell-based
T2 sequence (whole entry): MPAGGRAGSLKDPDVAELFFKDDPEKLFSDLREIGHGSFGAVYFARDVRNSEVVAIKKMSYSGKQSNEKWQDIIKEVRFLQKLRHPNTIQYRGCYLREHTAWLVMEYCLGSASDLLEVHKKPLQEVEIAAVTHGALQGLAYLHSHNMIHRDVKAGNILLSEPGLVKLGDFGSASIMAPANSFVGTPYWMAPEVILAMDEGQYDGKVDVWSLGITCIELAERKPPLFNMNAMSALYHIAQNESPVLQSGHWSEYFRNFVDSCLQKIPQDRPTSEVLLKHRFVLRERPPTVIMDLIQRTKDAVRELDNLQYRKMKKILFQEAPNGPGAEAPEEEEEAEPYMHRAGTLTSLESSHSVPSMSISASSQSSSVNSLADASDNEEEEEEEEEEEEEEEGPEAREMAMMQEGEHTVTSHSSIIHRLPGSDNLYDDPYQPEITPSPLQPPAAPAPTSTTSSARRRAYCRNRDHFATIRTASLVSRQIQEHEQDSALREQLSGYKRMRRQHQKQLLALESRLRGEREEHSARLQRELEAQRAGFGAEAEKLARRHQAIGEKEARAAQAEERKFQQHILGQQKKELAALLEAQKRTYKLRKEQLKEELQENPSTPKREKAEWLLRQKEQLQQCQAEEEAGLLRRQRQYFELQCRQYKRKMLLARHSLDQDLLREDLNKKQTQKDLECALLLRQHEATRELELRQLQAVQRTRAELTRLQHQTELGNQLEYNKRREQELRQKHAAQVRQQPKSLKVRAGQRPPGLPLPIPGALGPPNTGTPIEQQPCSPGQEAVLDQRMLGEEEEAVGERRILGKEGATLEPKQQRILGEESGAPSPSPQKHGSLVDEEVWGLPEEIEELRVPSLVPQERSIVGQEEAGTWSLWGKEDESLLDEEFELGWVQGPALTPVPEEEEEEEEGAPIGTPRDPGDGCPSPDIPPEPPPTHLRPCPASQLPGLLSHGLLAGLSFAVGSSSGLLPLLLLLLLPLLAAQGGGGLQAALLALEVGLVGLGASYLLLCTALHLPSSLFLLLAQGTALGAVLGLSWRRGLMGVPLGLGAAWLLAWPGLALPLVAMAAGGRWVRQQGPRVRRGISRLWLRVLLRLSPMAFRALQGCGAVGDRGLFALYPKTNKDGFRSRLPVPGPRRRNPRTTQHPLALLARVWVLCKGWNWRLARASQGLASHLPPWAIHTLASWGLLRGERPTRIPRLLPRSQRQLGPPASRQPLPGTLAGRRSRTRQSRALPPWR

[7] = biological target: T1, Mitogen-activated protein kinase kinase kinase kinase 2 (Homo sapiens); test: Inhibition of MAP4K2 (GCK) Lys1 labeling site in human Huh-7 cells at 1 uM by KiNativ Profiling analysis relative to control; format: cell-based
[8] = biological target: Tyrosine-protein kinase Fyn (Homo sapiens) (UniProt P06241); test: Inhibition of FYN (unknown origin) at 1 uM by Ambit Kinomescan binding assay relative to control; values are per cent of control
Tyrosine-protein kinase Fyn (Homo sapiens), sequence (P06241 2-537 limits assumed): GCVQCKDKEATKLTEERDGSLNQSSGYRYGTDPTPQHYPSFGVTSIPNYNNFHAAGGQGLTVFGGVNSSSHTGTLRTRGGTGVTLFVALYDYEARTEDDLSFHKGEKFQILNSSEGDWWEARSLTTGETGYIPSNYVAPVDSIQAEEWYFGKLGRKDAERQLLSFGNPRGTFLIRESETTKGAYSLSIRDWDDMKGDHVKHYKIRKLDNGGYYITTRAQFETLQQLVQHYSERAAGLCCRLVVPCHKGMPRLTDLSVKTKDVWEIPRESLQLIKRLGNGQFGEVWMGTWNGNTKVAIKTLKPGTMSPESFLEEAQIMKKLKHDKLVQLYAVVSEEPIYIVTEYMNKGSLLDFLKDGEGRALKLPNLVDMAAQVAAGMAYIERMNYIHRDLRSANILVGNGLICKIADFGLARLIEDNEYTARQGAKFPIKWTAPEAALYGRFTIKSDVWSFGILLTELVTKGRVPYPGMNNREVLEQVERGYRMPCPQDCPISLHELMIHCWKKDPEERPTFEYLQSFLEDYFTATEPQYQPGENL

Calcium/calmodulin-dependent protein kinase type II subunit alpha (Homo sapiens), sequence (Q9UQM7 whole entry): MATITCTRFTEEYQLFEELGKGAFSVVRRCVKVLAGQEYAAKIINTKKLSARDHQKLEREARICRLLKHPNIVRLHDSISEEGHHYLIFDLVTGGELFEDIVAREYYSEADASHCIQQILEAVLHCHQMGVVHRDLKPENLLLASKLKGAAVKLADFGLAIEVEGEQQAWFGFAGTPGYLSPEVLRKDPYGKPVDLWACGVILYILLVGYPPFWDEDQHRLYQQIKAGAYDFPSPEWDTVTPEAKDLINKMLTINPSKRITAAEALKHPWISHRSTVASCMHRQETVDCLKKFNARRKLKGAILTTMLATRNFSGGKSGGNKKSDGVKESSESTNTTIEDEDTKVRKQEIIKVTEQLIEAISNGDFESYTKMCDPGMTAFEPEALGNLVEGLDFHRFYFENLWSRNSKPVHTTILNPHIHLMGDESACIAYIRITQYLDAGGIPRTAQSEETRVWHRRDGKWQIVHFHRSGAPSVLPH
Rho-associated protein kinase 1 (Homo sapiens), sequence (Q13464 2-1354 limits assumed): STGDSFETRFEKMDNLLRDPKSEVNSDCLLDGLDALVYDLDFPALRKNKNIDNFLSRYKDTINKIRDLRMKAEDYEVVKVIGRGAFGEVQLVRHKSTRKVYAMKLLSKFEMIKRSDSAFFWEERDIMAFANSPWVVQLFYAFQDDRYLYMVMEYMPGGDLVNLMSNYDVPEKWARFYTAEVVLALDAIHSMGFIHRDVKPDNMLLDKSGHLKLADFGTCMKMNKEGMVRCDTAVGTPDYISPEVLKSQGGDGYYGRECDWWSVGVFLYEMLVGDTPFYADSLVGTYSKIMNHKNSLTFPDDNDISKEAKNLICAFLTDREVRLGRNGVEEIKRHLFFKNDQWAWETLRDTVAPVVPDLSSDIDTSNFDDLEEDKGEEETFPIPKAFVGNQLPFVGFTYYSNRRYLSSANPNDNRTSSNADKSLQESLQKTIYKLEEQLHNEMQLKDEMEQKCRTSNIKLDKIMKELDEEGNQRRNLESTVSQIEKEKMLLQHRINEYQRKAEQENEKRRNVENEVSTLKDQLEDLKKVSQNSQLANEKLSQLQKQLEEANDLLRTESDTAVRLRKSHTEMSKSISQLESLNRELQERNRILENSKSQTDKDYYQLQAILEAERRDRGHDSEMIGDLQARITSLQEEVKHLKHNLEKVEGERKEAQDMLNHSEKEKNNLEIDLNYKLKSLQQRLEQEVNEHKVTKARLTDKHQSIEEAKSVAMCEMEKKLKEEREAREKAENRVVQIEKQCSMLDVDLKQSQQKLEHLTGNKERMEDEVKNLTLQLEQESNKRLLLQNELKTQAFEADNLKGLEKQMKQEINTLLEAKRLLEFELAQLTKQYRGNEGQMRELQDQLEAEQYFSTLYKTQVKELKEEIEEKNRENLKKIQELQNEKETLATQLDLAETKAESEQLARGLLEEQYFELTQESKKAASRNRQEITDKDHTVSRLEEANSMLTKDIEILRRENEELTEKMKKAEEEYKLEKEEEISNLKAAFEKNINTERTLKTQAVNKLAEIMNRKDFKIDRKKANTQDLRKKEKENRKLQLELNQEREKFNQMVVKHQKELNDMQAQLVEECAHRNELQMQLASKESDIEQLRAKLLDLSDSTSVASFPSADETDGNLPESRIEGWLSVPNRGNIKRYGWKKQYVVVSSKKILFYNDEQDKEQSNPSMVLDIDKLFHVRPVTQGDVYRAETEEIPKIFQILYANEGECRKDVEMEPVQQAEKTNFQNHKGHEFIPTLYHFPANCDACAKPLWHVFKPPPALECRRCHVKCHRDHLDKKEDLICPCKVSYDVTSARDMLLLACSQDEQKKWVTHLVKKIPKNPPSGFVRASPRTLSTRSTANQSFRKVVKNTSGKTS

With `CCN1CCN(Cc2ccc(NC(=O)c3ccc(C)c(Oc4ccnc5[nH]ccc45)c3)cc2C(F)(F)F)CC1` the inhibition [1] was “inactive”, the inhibition [2] was 95.1% and the inhibition [3] was 98%. It also gave an inhibition [4] of 11%.
`CNc1cc(Oc2cc(C(=O)Nc3cc(N4CCN(C)CC4)cc(C(F)(F)F)c3)ccc2C)ncn1` was tested, and the inhibition [5] was 2.7%, the inhibition [6] was 35.6% and the inhibition [7] was 88.3%.
For `CCN1CCN(Cc2ccc(NC(=O)c3ccc(C)c(/C=C/c4cnc5[nH]ccc5c4OC)c3)cc2C(F)(F)F)CC1`, the percent of control [8] was 5.2%.
